Marks after values point to notes of the source that are not given here.

One may read the CL/F as clearance divided by bioavailability, as obtained after extravascular dosing. Broadly, the Tmax is the time at which the peak concentration occurs. In general, Cmax refers to the peak of the concentration-time curve.

Series [1] in a line: Anti-obesity effect by repeated administration alone and in combination with semaglutide in ob/ob mice (Example 5). Format: in vivo. An excerpt:
The ob/ob mouse has a mutation in the leptin gene resulting in leptin deficiency, and are characterized by hyperglycemia, insulin resistance, overeating, and obesity. 5-week-old male ob/ob mice (Jackson Laboratory, USA) were purchased from Raon Bio (Animal Inc., Republic of Korea). The ob/ob mice were acclimatized with normal food (Teklad Certified Irradiated Global 18% Protein Rodent Diet, 2918C, Harlan Co., USA) for 4 weeks, and drug treatment was started at 9 weeks of age. On the day before drug treatment, the mice were grouped based on the body weight of individual mice and random blood glucose levels determined by sampling at the tail vein (n=6 per group). Thereafter, 1 and 10 nmol/kg of FM9-6+Fc_hole alone, 10 and 30 nmol/kg of semaglutide alone, and FM9-6+Fc_hole and semaglutide at doses of 1+10 and 10+10 nmol/kg in combination were subcutaneously administered thereto a total of 10 times every 3 days (Q3D), and body weight and food intake were measured every day or every 3 days during the experimental period (29 days). Here, DPBS (Dulbecco's phosphate-buffered saline, Gibco, USA) was administered for vehicle treatment.

The target of series [2] is T1, GFRAL/RET/SRE-luc-overexpressing HEK293 cell line (Homo sapiens, UniProt Q6UXV0).
T1 construct: expressed in transfected cells; host or cells: HEK293 (human embryonic kidney 293), overexpressing GFRAL, RET and an SRE-luciferase reporter
T1 sequence (Q6UXV0 19-394, species assumed): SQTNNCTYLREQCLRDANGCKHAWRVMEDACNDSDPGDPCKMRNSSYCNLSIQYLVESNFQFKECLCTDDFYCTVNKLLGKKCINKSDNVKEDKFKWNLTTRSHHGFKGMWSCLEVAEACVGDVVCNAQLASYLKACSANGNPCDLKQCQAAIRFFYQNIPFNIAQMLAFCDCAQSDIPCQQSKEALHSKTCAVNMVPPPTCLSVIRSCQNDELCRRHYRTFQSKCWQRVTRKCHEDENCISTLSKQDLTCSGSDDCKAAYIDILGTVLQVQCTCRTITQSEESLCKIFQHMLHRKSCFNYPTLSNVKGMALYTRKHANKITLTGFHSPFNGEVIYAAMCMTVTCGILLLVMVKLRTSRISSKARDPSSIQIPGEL
T1 sequence (P07949 29-1114 partner, species assumed): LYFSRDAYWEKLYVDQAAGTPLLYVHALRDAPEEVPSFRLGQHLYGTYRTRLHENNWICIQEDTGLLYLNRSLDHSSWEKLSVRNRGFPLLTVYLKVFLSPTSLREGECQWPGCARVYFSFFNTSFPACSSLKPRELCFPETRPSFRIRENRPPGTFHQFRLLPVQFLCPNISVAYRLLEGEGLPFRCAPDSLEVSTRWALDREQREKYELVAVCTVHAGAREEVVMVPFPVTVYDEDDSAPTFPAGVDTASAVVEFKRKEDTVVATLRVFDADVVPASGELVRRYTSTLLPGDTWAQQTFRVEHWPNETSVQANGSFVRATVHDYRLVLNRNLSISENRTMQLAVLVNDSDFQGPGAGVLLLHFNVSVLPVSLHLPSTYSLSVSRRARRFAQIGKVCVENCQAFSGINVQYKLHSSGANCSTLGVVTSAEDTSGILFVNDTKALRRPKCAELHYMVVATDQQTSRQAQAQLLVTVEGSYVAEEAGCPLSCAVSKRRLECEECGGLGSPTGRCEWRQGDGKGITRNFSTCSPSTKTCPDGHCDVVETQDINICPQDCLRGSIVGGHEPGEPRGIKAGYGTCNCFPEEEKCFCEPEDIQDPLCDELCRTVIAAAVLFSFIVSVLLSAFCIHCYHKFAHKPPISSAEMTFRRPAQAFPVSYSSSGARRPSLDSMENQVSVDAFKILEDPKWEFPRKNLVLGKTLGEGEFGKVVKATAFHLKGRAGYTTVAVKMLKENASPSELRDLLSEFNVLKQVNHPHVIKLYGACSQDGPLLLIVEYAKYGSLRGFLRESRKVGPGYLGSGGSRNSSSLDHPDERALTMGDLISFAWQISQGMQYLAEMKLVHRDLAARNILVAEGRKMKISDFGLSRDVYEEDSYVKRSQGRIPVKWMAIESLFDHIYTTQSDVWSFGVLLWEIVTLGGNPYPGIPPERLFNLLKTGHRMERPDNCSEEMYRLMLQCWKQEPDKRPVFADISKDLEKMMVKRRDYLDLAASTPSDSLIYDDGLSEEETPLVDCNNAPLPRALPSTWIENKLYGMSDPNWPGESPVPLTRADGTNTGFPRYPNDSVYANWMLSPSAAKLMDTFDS
Put plainly: Functional activity of long-acting GDF15 fusion protein (Bright-Glo luciferase assay). Format: cell-based. As to conditions: relative to FM9-6+Fc_hole (Emax 100%). As to the method:
Two variants (FM9+Fc_hole, FM11+Fc_hole) were compared and evaluated for GDF15 activity depending on the linker type and length. The GDF15 activity was measured using a Bright-Glo™ luciferase assay kit (Promega) and a GFRAL/RET/SRE-luc-overexpressing HEK293 cell line (Human embryonic kidney 293).
Specifically, 1×10^5 GFRAL/RET/SRE-luc-overexpressing HEK293 cells were dispended in DMEM containing 10% FBS in each well of a 96-well-plate, followed by culture at 37° C. and 5% CO2 for 24 hours. After 24 hours, each medium of the 96-well plate was replaced with 50 μl of a serum-free medium, followed by culture at 37° C. and 5% CO2 for 4 hours.
In addition, the long-acting GDF15 fusion protein produced in Example 1 was prepared by 3-fold serial dilution from a concentration of 2000 nM using a serum-free medium. Thereafter, 50 μl of the long-acting GDF15 fusion protein dilution was added to each well containing 50 μl of the replaced serum-free medium and the GERAL/RET/SRE-luc cell line so that the actual concentration thereof was serially diluted 3-fold from 1000 nM, followed by reaction at 37° C. and 5% CO2 for 4 hours. After 4 hours, each well was treated with 100 μl of a Bright-Glo™ solution prepared by adding a Bright-Glo™ buffer to a Bright-Glo™ substrate, followed by reaction at room temperature for 1 minute.
Thereafter, the reaction value (relative light units, RLU) was measured using a microplate reader (Perkin Elmer, Wallac Victor X5) capable of measuring luminescence. The results thereof are shown in Table 2 below and in FIGS. 1 and 2. Here, the functional activity of the long-acting GDF15 fusion protein depending on the GDF15 sequence, linker type, and length was compared based on the in-vitro GDF15 activity of FM9-6+Fc_hole (Emax 100%).

Series [3] is described as follows: Inhibitory effect on gastric emptying (acetaminophen exposure) in normal rats (Example 8). Format: in vivo. As to conditions: for AUClast of acetaminophen (μg · min/mL), 3 hr / AUClast of acetaminophen (μg · min/mL), 24 hr / AUClast of acetaminophen (μg · min/mL), 72 hr: rats; for AUClast of acetaminophen (μg · min/mL), 3 hr: acetaminophen 3 hr after dose; for AUClast of acetaminophen (μg · min/mL), 24 hr: acetaminophen 24 hr after dose; for AUClast of acetaminophen (μg · min/mL), 72 hr: acetaminophen 72 hr after dose. As to the method:
Therefore, this example was performed to investigate the inhibitory effect on gastric emptying when the novel long-acting GDF15 fusion protein was administered at the doses equal to the effective dose, higher than the maximum effective dose, or in combination with a GLP-1 receptor agonist to rats. 6-week-old male SD rats (Orient Bio, Republic of Korea) were purchased from Hallym Lab. Animal Inc., Republic of Korea. Animals were acclimated for 7 days. On the day of drug administration, the rats were grouped based on the average body weight of individual rats (n=5 per group) and fasted for at least 6 hours before oral administration of acetaminophen. Then, 0.1, 1, and 10 nmol/kg of FM9-6+Fc_hole, 10 nmol/kg of semaglutide (long-acting GLP-1 derivative, SEQ ID NO: 114), and combination of FM9-6+Fc_hole and semaglutide (1+10 nmol/kg) were subcutaneously administered. The semaglutide was Ozempic® (semaglutide) from Novo NorDisk. As a negative control drug, D-PBS (normal vehicle) was subcutaneously administered, and as a positive control drug, 30 mg/kg of loperamide was orally administered 45 minutes before acetaminophen administration. On 3, 24 and 72 hours after a single dose of the test articles, acetaminophen was orally administered at 100 mg/kg to rats, and blood samples were collected before and at 30, 60, 90, 120 and 150 minutes after acetaminophen administration. The plasma concentration of acetaminophen was analyzed, and the pharmacokinetic profiles and the systemic exposures of acetaminophen were compared to evaluate the inhibitory effect on gastric emptying among the groups.

Series [4] can be described thus: Pharmacokinetics of long-acting GDF15 fusion protein (dimer) in C57BL/6N mice. As to conditions: 1 mg/kg subcutaneous. Format: in vivo. How it is done: 6-week-old male C57BL/6N mice (Orient Bio, Republic of Korea) were purchased from Hallym Lab. Animal Inc., Republic of Korea. Animals were acclimated for 7 days, and on the day of drug administration, the mice were grouped based on the average body weight of individual mice (n=3 per blood sampling time per group). Then, FM9-4+Fc_hole, FM9-6+Fc_hole, FM11-4+Fc_hole, and FM11-6+Fc_hole were subcutaneously administered at 1 mg/kg to each group, and blood samples were collected at 4, 24, 48, 72, 96, 120, 168, and 240 hours after administration. Determination of active GDF15 in serum was achieved by enzyme-linked immunosorbent assay (ELISA), and pharmacokinetic parameters of each long-acting GDF15 fusion protein (dimer) are shown in Table 3 below.

With “FM9-6 + Fc_hole: long-acting GDF15 fusion protein (dimer): GDF15 ΔN2, S64R, IgG1 Fc_knob/Fc_hole, linker GS(EAAAK)5; SEQ ID NOs: 103 and 47”, in series [1] (1 nmol/kg s.c. Q3D), the “Change in body weight (%) vs. ob/ob control, Maximum efficacy” value is listed as −21.49 (On Day 29)**** % and the “Change in body weight (%) vs. ob/ob control, Efficacy on Day 29” value was −21.49**** %. In series [1] (10 nmol/kg s.c. Q3D), the “Change in body weight (%) vs. ob/ob control, Maximum efficacy” value is −24.87 (On Day 29)**** % and the “Change in body weight (%) vs. ob/ob control, Efficacy on Day 29” value was −24.87 **** %. The “Emax (%)” value in series [2] turned out to be 100.0%. In series [3] (0.1 nmol/kg s.c. single dose), the “AUClast of acetaminophen (μg · min/mL), 3 hr” value (“AUClast … 3 hr” below) is 1873.02 µg·min/mL; the “AUClast of acetaminophen (μg · min/mL), 24 hr” value (from here on “AUClast … 24 hr”) amounted to 2652.42 µg·min/mL; the “AUClast of acetaminophen (μg · min/mL), 72 hr” value (“AUClast … 72 hr” below) was determined as 3054.78 µg·min/mL. In series [3] (1 nmol/kg s.c. single dose), the “AUClast … 3 hr” value turned out to be 2615.40 µg·min/mL; the “AUClast … 24 hr” value is 1878.30 µg·min/mL; the “AUClast … 72 hr” value is 3526.86 µg·min/mL. In series [3] (10 nmol/kg s.c. single dose), the “AUClast … 3 hr” value turned out to be 1497.84 µg·min/mL; the “AUClast … 24 hr” value turned out to be 2385.36 µg·min/mL; the “AUClast … 72 hr” value came to 3100.59 µg·min/mL. Also, in series [3] (rats, 0.1, 1, and 10 nmol/kg, 3, 24, and 72 hours after administration), the “gastric emptying (in words)” value is recorded as “did not affect gastric emptying”. Further, in series [4], the “AUClast” value came out at 939.30872 µg·h/mL, the apparent clearance CL/F is 21.8 mL/day/kg, the “T1/2,app” value was determined as 84.28 h and the “Tmax” value was 24 h. For the same substance, the “Cmax” value in series [4] (active GDF15 in serum by ELISA) was found to be 7581.92 ng/mL.

The values are drawn from patent US20240238380A1, “COMPOSITION FOR COMBINATION THERAPY COMPRISING GROWTH DIFFERENTIATION FACTOR-15 VARIANT AND GLUCAGON-LIKE PEPTIDE-1 RECEPTOR AGONIST” (YUHAN CORPORATION, priority 2021, published 2024).
